Patent US6124498A, “Hydroxynaphthoic acids and derivatives” (University Of New Mexico, priority 1998, dated 2000)
Entries after “also recorded” stand apart in the source; their conditions may differ.

Experiments:
pLDH [1] = molecular target: T1, pLDH (Plasmodium falciparum, UniProt Q27743); assay: biochemical; type: biochemical; settings: for mode of inhibition of pLDH with respect to cofactor (NADH): vs cofactor NADH; for selectivity for pLDH compared to LDH-H: pLDH vs LDH-H
T1 construct: made in house; host or cells: E. coli
T1 sequence (Q27743 whole entry): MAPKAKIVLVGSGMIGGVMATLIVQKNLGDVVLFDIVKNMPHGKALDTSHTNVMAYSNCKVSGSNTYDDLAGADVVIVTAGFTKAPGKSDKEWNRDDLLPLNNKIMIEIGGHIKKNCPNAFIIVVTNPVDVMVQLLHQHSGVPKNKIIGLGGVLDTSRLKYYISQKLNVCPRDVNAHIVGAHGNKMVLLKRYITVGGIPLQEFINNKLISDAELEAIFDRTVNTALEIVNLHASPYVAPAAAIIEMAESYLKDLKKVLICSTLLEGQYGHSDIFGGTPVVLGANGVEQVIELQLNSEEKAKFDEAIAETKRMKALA
Method: (§1) Human LDH-H4 and LDH-M4 were from Sigma.
(§2) LDH activity in the direction of NADH reduction of pyruvate to L-lactate was determined spectrophotometrically in pH 7.5 Tris buffer, 100 mM, containing 10 mM pyruvate and […], 25° C., 340 nm, ε=6.2 mM^-1 cm^-1. Michaelis constants were determined by nonlinear regression analysis of initial rate data using the Enzfitter program (Elsevier-Biosoft). Ki values were determined from double reciprocal plots by linear regression analysis.

human LDH-M (LDH-M4) = molecular target: T2, human LDH-M (LDH-M4) (Homo sapiens, UniProt P00338); assay: Inhibition of human lactate dehydrogenase LDH-M (LDH-M4), NADH reduction of pyruvate; type: biochemical; settings: for mode of inhibition of LDH-M with respect to cofactor (NADH): vs cofactor NADH; for selectivity for LDH-M compared to LDH-H: LDH-M vs LDH-H; for change in inhibition / dissociation constant of LDH-M relative to 13: group at 7-position, compared to 13
T2 construct: purchased Sigma
Method: Recombinant pLDH was produced in E. coli, similar to the procedure described by Bzik et al. in "Expression of Plasmodium falciparum Lactate Dehydrogenase in Escherida coli." in Mol. Biochem. Parasitol., 1993, 59, 155-166 and was purified by Cibacron blue affinity chromatography and chromatofocusing as described previously. Human LDH-H4 and LDH-M4 were from Sigma.
as §2

alcohol dehydrogenase = assay: Inhibition of alcohol dehydrogenase; type: biochemical; settings: FIG. 14D
Method: (§3) Other studies with other dehydrogenases that contain the classic Rossman fold, in addition to LDH, were carried out to test that inhibition of dehydrogenases by substituted didhydroxynaphthoic acids is not limited to inhibition of LDH. A number of dehydrogenases were examined as shown in FIGS. 14A (2,3-dihydroxy-6-methyl-7-(o-methylbenzyl)-4-(1-methylethyl)-1-naphthoic acid (25e) inhibition D-lactate dehydrogenase), 14B (2,3-dihydroxy-6-methyl-7-(m-methylbenzyl)-4-(1-methylethyl)-1-naphthoic acid (25f) inhibition of malate dehydrogenase), 14C (compound 25b inhibition of glucose 6-phosphate dehydrogenase) and 14D (compound 21e inhibition of alcohol dehydrogenase).

human LDH-H (LDH-H4) = molecular target: T3, human LDH-H (LDH-H4) (Homo sapiens, UniProt P07195); assay: Inhibition of human lactate dehydrogenase LDH-H (LDH-H4), NADH reduction of pyruvate; type: biochemical; settings: group at 7-position, compared to 13
T3 construct: purchased Sigma
T3 sequence (P07195 2-334 limits assumed): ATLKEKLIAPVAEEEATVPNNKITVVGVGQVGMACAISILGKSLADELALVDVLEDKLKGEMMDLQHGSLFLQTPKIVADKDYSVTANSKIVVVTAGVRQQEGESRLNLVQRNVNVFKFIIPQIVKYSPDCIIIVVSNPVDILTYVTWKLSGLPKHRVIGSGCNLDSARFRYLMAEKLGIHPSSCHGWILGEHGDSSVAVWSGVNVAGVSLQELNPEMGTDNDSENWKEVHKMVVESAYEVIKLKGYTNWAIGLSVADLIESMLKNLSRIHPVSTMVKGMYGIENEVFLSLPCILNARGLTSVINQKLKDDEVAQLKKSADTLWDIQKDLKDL
Method: as §1, §2

[2] = system: glucose 6-phosphate dehydrogenase; assay: Inhibition of glucose 6-phosphate dehydrogenase; type: biochemical; settings: FIG. 14C
Method: as §3

pLDH [3] = molecular target: T1, pLDH; assay: Quenching of intrinsic protein fluorescence of pLDH in presence and absence of ADP; type: binding; settings: presence vs absence of ADP
Source text: (§4) To test the Pan-Active Site inhibitor model for the compounds of the present invention, the binding of dihydroxynaphthoic acids to pLDH and human LDH was examined using fluorescence techniques. The effects of ADP on the binding of inhibitors was compared with the effects of ADP on the binding of NADH to determine which part of the cofactor binding site was the target of the inhibitors. Representative results are shown in FIGS. 13A and 13B for the binding of compound 25c to pLDH. […] In FIG. 13B is shown the quenching of pLDH fluorescence by compound 25c in the presence and absence of ADP.

LDH-M4 = assay: Quenching of intrinsic protein fluorescence of LDH-M4 in presence and absence of ADP; type: binding, human; settings: presence vs absence of ADP
Source text: as §4

D-lactate dehydrogenase = assay: Inhibition of D-lactate dehydrogenase; type: biochemical; settings: FIG. 14A
Method: as §3

malate dehydrogenase = assay: Inhibition of malate dehydrogenase; type: biochemical; settings: FIG. 14B
Method: as §3

[4] = system: IMP dehydrogenase type 11; settings: dominant isoenzyme in neoplastic cells; cited from earlier work

Cc1ccc2c(C(=O)O)c(O)c(O)c(C(C)C)c2c1 [Compound 13, 8-deoxyhemigossylic acid, reference compound]
dissociation constant for inhibition of pLDH (pLDH [1]; in words): low μmolar range | mode of inhibition of pLDH with respect to cofactor (NADH) (pLDH [1]): competitive with the binding of NADH | mode of inhibition of LDH-M with respect to cofactor (NADH) (human LDH-M (LDH-M4)): competitive with the binding of NADH

Cc1ccc2c(C(=O)O)c(O)c(O)c(C)c2c1 [Compound 21a, 2,3-Dihydroxy-4,6-dimethyl-1-naphthoic acid]
selectivity for pLDH compared to LDH-H (pLDH [1]): selectivity for pLDH and LDH-M compared to LDH-H | selectivity for LDH-M compared to LDH-H (human LDH-M (LDH-M4)): selectivity for pLDH and LDH-M compared to LDH-H

Cc1cc2c(C)c(O)c(O)c(C(=O)O)c2cc1C [Compound 21b, 2,3-Dihydroxy-4,6,7-trimethyl-1-naphthoic acid]
selectivity for pLDH compared to LDH-H (pLDH [1]): selectivity for pLDH and LDH-M compared to LDH-H | selectivity for LDH-M compared to LDH-H (human LDH-M (LDH-M4)): selectivity for pLDH and LDH-M compared to LDH-H

Cc1cc2c(C)c(O)c(O)c(C(=O)O)c2cc1Cc1ccccc1 [Compound 21c, 7-Benzyl-2,3-dihydroxy-4,6-dimethyl-1-naphthoic acid]
selectivity for pLDH compared to LDH-H (pLDH [1]): selectivity for pLDH and LDH-M compared to LDH-H | selectivity for LDH-M compared to LDH-H (human LDH-M (LDH-M4)): selectivity for pLDH and LDH-M compared to LDH-H

CCCc1c(O)c(O)c(C(=O)O)c2cc(C)c(C)cc12 [Compound 21e, 2,3-Dihydroxy-6,7-dimethyl-4-n-propyl-1-naphthoic acid]
selectivity for LDH-M compared to LDH-H (human LDH-M (LDH-M4)): 190 fold | inhibition of alcohol dehydrogenase (alcohol dehydrogenase): inhibition

Cc1cc2c(C(=O)O)c(O)c(O)c(C(C)C)c2cc1C [Compound 25a, 2,3-Dihydroxy-6,7-dimethyl-4-(1-methylethyl)-1-naphthoic acid]
change in inhibition / dissociation constant of pLDH relative to 13 (pLDH [1]; group at 7-position, compared to 13): little change in the dissociation constants | change in inhibition / dissociation constant of LDH-M relative to 13 (human LDH-M (LDH-M4)): little change in the dissociation constants

Cc1cc2c(C(C)C)c(O)c(O)c(C(=O)O)c2cc1Cc1ccccc1 [Compound 25b, 7-Benzyl-2,3-dihydroxy-6-methyl-4-(1-methylethyl)-1-naphthoic acid]
change in inhibition / dissociation constant of LDH-M relative to 13 (human LDH-M (LDH-M4)): markedly stronger inhibition | change in inhibition / dissociation constant of LDH-H relative to 13 (human LDH-H (LDH-H4)): markedly stronger inhibition | inhibition of glucose 6-phosphate dehydrogenase [2]: inhibition

Cc1cc2c(C(C)C)c(O)c(O)c(C(=O)O)c2cc1Cc1ccc(C(F)(F)F)cc1 [Compound 25c, 7-p-Trifluoromethylbenzyl-2,3-dihydroxy-6-methyl-4-(1-methylethyl)-1-naphthoic acid]
Ki (pLDH [1]; pH 7.5 Tris, 25° C., read-out: Ki for inhibition of pLDH): 200 nM | selectivity for pLDH over LDH-H (pLDH [1]; pLDH over LDH-H): 400 fold | selectivity for pLDH over LDH-M (pLDH [1]; pLDH over LDH-M): 75 fold | mode of inhibition of pLDH with respect to cofactor (NADH) (pLDH [1]): competitive against both cofactor and substrate | selectivity for pLDH compared to either human LDH (pLDH [1]; vs human LDH-M and LDH-H): highly selective in favor of pLDH | mode of inhibition of pLDH with respect to substrate (pLDH [1]; vs substrate (pyruvate)): competitive against both cofactor and substrate; also recorded: appears competitive | competition with the ADP part of the NADH binding site of pLDH (pLDH [3]): not competing with the ADP part of the NADH binding site | effect of ADP on binding to pLDH (fluorescence quenching) (pLDH [3]): enhances the binding of inhibitor | effect of ADP on binding to LDH-M4 (fluorescence quenching) (LDH-M4): The same results were obtained with LDH-M4

Cc1ccc(Cc2cc3c(C(=O)O)c(O)c(O)c(C(C)C)c3cc2C)cc1 [Compound 25d, 2,3-dihydroxy-6-methyl-7-(p-methylbenzyl)-4-(1-methylethyl)-1-naphthoic acid]
Kd (human LDH-M (LDH-M4); pH 7.5 Tris, 25° C.): 30 nM | mode of inhibition of LDH-M with respect to cofactor (NADH) (human LDH-M (LDH-M4)): competitive against both cofactor and substrate | mode of inhibition of LDH-M4 with respect to substrate (human LDH-M (LDH-M4); vs substrate (pyruvate), FIGS. 12A and 12B): competitive against both cofactor and substrate

Cc1ccccc1Cc1cc2c(C(=O)O)c(O)c(O)c(C(C)C)c2cc1C [Compound 25e, 2,3-dihydroxy-6-methyl-7-(o-methylbenzyl)-4-(1-methylethyl)-1-naphthoic acid]
inhibition of D-lactate dehydrogenase (D-lactate dehydrogenase): inhibition

Cc1cccc(Cc2cc3c(C(=O)O)c(O)c(O)c(C(C)C)c3cc2C)c1 [Compound 25f, 2,3-dihydroxy-6-methyl-7-(m-methylbenzyl)-4-(1-methylethyl)-1-naphthoic acid]
inhibition of malate dehydrogenase (malate dehydrogenase): inhibition

NC(=O)C1=CN([C@@H]2O[C@H](COP(=O)(O)OP(=O)(O)OC[C@H]3O[C@@H](n4cnc5c(N)ncnc54)[C@H](O)[C@@H]3O)[C@@H](O)[C@H]2O)C=CC1 [NADH, reference compound]
effect of ADP on binding to pLDH (fluorescence quenching) (pLDH [3]): the presence of ADP competes with the binding of NADH

NC(=O)c1csc([C@@H]2O[C@H](COP(=O)(O)OP(=O)(O)OC[C@H]3O[C@@H](n4cnc5c(N)ncnc54)[C@H](O)[C@@H]3O)[C@@H](O)[C@H]2O)n1 [thiazole-4-carboxamide adenine dinucleotide]
inhibition of IMP dehydrogenase type 11 [4]: potent inhibitor
